Inconclusive results are not listed.
Test system: C2C12 mouse myoblast viability, CellTiter-Glo ATP, 8-48 h
Test: C2C12 myoblast ATP-based viability loss, dose response, cytotoxicity control for HRAS target identification, cell-based, CellTiter-Glo ATP luminescence, 8/24/48 h, dry powder (AID 720603)

COC(=O)c1ccc([C@@H]2c3[nH]c4ccccc4c3C[C@@H](C(=O)OC)N2C(=O)CCl)cc1
AC50 (measured here: 8 h treatment): 0.597 µM | AC50 (measured here: 24 h treatment): 0.0212 µM | AC50 (measured here: 48 h treatment): 0.0806 µM

COc1ccc(N(C(=O)CCl)C(C(=O)NCCc2ccccc2)c2cccs2)cc1Cl (stereo unspecified)
AC50 (measured here: 8 h treatment): 17.8 µM | AC50 (measured here: 24 h treatment): 0.108 µM | AC50 (measured here: 48 h treatment): 0.311 µM

CC(C)(C)OC(=O)NCCOCCOCCOc1ccc(N(C(=O)CCl)C(C(=O)NCCc2ccccc2)c2cccs2)cc1Cl (stereo unspecified)
AC50 (measured here: 8 h treatment): 1.38 µM | AC50 (measured here: 24 h treatment): 0.161 µM | AC50 (measured here: 48 h treatment): 0.388 µM

C#CCCCC(=O)NCCOCCOCCOc1ccc(N(C(=O)CCl)C(C(=O)NCCc2ccccc2)c2cccs2)cc1Cl (stereo unspecified)
AC50 (measured here: 24 h treatment): 1.33 µM | AC50 (measured here: 48 h treatment): 2.62 µM
